Laboratory results as given in patent US20220288137A1, “Bifidobacterium Longum Subsp. Infantis CCFM687 and Fermented Food and Application Thereof” (Jiangnan University, priority 2018, published 2022).

System: depressed mice (chronic unpredictable stress depression mouse model)
Test: Butyric acid content in the caecum of depressed mice (GC-MS)
Assay type: in vivo, C57BL/6J mice
Conditions: 6 weeks intervention (CCFM687 10^9 cfu or fluoxetine 10 mg/kg), GC-MS of cecal content (FIG. 3)
Method: 32 6-week-old male C57BL/6J mice were selected. After one week of adaptation to the environment, the mice were randomly divided into four groups according to body weight: a control group, a model group, a fluoxetine intervention group, and a CCFM687 intervention group, each containing 8 mice.
Chronic unpredictable stress depression mouse model: 1-2 kinds of stimuli were randomly performed every day, and the performance time of stimuli every day was determined randomly to avoid the circadian rhythm. Each method was used for not more than three times, and the stimuli were performed for five weeks. The stimuli include: (1) fasting for 24 h; (2) water deprivation+empty bottle stimulus for 24 h; (3) tail pinching for 3 min; (4) wet padding for 24 h; (5) immobilization for 1-2 h; (6) 45° tilted cage for 24 h; (7) continuous lighting for 24 h; (8) no padding for 24 h; (9) forced swim for 15 min; and (10) separation for 24 h. […]
The mice in Example 2 were euthanized at the sixth weekend, and the content of the cecum of the mice was collected. […] 500 μL of supernatant was taken into a gas phase vial, and the contents of short-chain fatty acids (acetic acid, propionic acid, isobutyric acid, butyric acid and isovaleric acid) were measured by GC-MS. […] The analysis adopted a full scan mode, and the concentration of each short-chain fatty acid (μmol/g) was calculated by an external standard method. […]

SMILES: CNCCC(Oc1ccc(C(F)(F)F)cc1)c1ccccc1 (stereo not shown) [fluoxetine]
- butyric acid content in the caecum / intestine: has no regulating effect on the butyric acid content
